Values joined by “and” are separate entries in the source; they are usually repeats but may differ in a detail not shown here. Identical values can stand only once. Like-named read-outs stand apart in the source and are kept apart here.
Experiments:
[1] = system: naive Sprague Dawley rat hearts; conditions: for left ventricular dP/dtmax (load independent cardiac contractility) / left ventricular dP/dtmin (load independent cardiac relaxation): ex vivo naive Sprague Dawley rat hearts, Langendorff apparatus, as a function of concentration
heart failure rat model = type: in vivo; conditions: for cardiac contractility as measured by dP/dtmax (derivative of left ventricular pressure): male Lewis rats, heart failure by permanent ligation of left descending coronary artery, ejection fraction <35%, dosed acutely for 30 min
Protocol: Male Lewis rats (Charles River, USA) at 2-3 months of age were used for the study. […] APJ agonists were administered dose dependently acutely for a period of 30 min.

APJ = APJ (Homo sapiens (Human), UniProt P35414); test: [35S]GTPγS binding assay on membranes from CHO cells stably expressing human APJ receptor; type: biochemical
[2] = ex vivo isolated perfused rat heart, contractility, percent change over vehicle
[3] = ex vivo isolated perfused rat heart, relaxation (lusitropic), percent change over vehicle
[4] = in vivo heart failure (MI) rat, acute administration for 30 min
[5] = read-out: Activity hAPJ SPA EC50 IP

APJ, sequence (P35414 whole entry, the tested form may be a part): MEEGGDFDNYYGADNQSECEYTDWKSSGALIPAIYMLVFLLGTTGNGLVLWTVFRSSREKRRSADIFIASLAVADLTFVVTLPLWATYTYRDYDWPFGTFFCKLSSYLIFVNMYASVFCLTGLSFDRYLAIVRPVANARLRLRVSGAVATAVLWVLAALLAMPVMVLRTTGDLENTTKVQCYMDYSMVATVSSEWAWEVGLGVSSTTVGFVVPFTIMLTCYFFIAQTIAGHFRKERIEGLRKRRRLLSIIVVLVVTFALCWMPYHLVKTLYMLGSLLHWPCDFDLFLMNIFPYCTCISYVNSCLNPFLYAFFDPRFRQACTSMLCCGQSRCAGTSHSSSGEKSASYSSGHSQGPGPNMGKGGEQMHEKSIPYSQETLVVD

COc1cccc(OC)c1-n1c(NS(=O)(=O)[C@H](C)[C@@H](C)c2ncc(Cl)cn2)nnc1-c1cccnc1 (racemic) [Example 694.0, (2R,3S)-3-(5-chloropyrimidin-2-yl)-N-(4-(2,6-dimethoxyphenyl)-5-(pyridin-3-yl)-4H-1,2,4-triazol-3-yl)butane-2-sulfonamide or (2S,3R)-3-(5-chloropyrimidin-2-yl)-N-(4-(2,6-dimethoxyphenyl)-5-(pyridin-3-yl)-4H-1,2,4-triazol-3-yl)butane-2-sulfonamide]
Isolated Heart Assay dP/dtmax(%) [1, 2]: 18.0%
Isolated Heart Assay dP/dtmin(%) [1, 3]: 32.0%
MI Rat Model dP/dtmax(%) (heart failure rat model; [4]): 8%

CCO[C@H](c1ncc(C)cn1)[C@H](C)S(=O)(=O)Nc1nnc(-c2cccnc2)n1-c1c(OC)cccc1OC (single isomer, unassigned) [Example 109.0]
Isolated Heart Assay dP/dtmax(%) [1]: 15%
Isolated Heart Assay dP/dtmin(%) [1]: 25%
left ventricular dP/dtmax (load independent cardiac contractility) [1]: increases load independent cardiac contractility
left ventricular dP/dtmin (load independent cardiac relaxation) [1]: increases load independent cardiac relaxation
cardiac contractility as measured by dP/dtmax (derivative of left ventricular pressure) (heart failure rat model): increase in cardiac contractility
MI Rat Model dP/dtmax(%) (heart failure rat model; rat, in vivo): 20%

COc1cccc(OC)c1-n1c(NS(=O)(=O)[C@H](C)[C@@H](OC)c2ncc(Cl)cn2)nnc1-c1cncc(C)c1 (single isomer, unassigned) [Example 557.0]
Isolated Heart Assay dP/dtmax(%) [1, 2]: 17.0%
Isolated Heart Assay dP/dtmin(%) [1, 3]: 20.0%
MI Rat Model dP/dtmax(%) (heart failure rat model; [4]): No effect

COc1cccc(OC)c1-n1c(NS(=O)(=O)[C@@H](C)[C@@H](OC(C)C)c2ncc(C)cn2)nnc1-c1cncc(C)c1 (stereo in doubt) [Example 91.0, (1S,2S)-N-(4-(2,6-dimethoxyphenyl)-5-(5-methylpyridin-3-yl)-4H-1,2,4-triazol-3-yl)-1-isopropoxy-1-(5-methylpyrimidin-2-yl)propane-2-sulfonamide]
Isolated Heart Assay dP/dtmax(%) [1, 2]: 20.0%
Isolated Heart Assay dP/dtmin(%) [1, 3]: 43.0%
MI Rat Model dP/dtmax(%) (heart failure rat model; [4]): 25%

COc1cccc(OC)c1-n1c(NS(=O)(=O)[C@@H](C)[C@H](OC(C)C)c2ncc(C)cn2)nnc1-c1cncc(C)c1 (stereo in doubt) [Example 93.0, (1R,2S)-N-(4-(2,6-dimethoxyphenyl)-5-(5-methylpyridin-3-yl)-4H-1,2,4-triazol-3-yl)-1-isopropoxy-1-(5-methylpyrimidin-2-yl)propane-2-sulfonamide]
Isolated Heart Assay dP/dtmax(%) [1, 2]: 19.0%
Isolated Heart Assay dP/dtmin(%) [1, 3]: 27.0%
MI Rat Model dP/dtmax(%) (heart failure rat model; [4]): 20%

COc1cccc(OC)c1-n1c(NS(=O)(=O)[C@H](C)[C@@H](OC(C)C)c2ncc(C)cn2)nnc1-c1cccnc1 (stereo in doubt) [Example 624.0, (1S,2R)-N-(4-(2,6-dimethoxyphenyl)-5-(3-pyridinyl)-4H-1,2,4-triazol-3-yl)-1-(1-methylethoxy)-1-(5-methyl-2-pyrimidinyl)-2-propanesulfonamide, (1R,2S)-N-(4-(2,6-dimethoxyphenyl)-5-(3-pyridinyl)-4H-1,2,4-triazol-3-yl)-1-(1-methylethoxy)-1-(5-methyl-2-pyrimidinyl)-2-propanesulfonamide]
EC50 (APJ; [5]): 0.16 µM

COc1cccc(OC)c1-n1c(NS(=O)(=O)[C@@H](C)[C@@H](OC(C)C)c2ncc(C)cn2)nnc1-c1cccnc1 (stereo in doubt) [Example 625.0]
EC50 (APJ; [5]): 0.11 µM

COc1cccc(OC)c1-n1c(NS(=O)(=O)[C@H](C)[C@@H](OC(C)C)c2ncc(C)cn2)nnc1-c1cccnc1 (stereo in doubt) [Example 626.0, (1S,2R)-N-(4-(2,6-dimethoxyphenyl)-5-(3-pyridinyl)-4H-1,2,4-triazol-3-yl)-1-(1-methylethoxy)-1-(5-methyl-2-pyrimidinyl)-2-propanesulfonamide, (1R,2S)-N-(4-(2,6-dimethoxyphenyl)-5-(3-pyridinyl)-4H-1,2,4-triazol-3-yl)-1-(1-methylethoxy)-1-(5-methyl-2-pyrimidinyl)-2-propanesulfonamide]
EC50 (APJ; [5]): 0.0018 µM

COc1cccc(-c2nnc(NS(=O)(=O)[C@@H](C)[C@H](OC)c3ncc(C)cn3)n2-c2c(OC)cccc2OC)n1 [Example 27.0, (1R,2S)-N-(4-(2,6-dimethoxyphenyl)-5-(6-methoxypyridin-2-yl)-4H-1,2,4-triazol-3-yl)-1-methoxy-1-(5-methylpyrimidin-2-yl)propane-2-sulfonamide]
Isolated Heart Assay dP/dtmax(%) [1, 2]: 26%
Isolated Heart Assay dP/dtmin(%) [1, 3]: 20%
left ventricular dP/dtmax (load independent cardiac contractility) [1]: increases load independent cardiac contractility
left ventricular dP/dtmin (load independent cardiac relaxation) [1]: increases load independent cardiac relaxation
MI Rat Model dP/dtmax(%) (heart failure rat model; [4]): 20%
cardiac contractility as measured by dP/dtmax (derivative of left ventricular pressure) (heart failure rat model): increase in cardiac contractility

COc1cccc(OC)c1-n1c(NS(=O)(=O)[C@@H](C)[C@H](O)c2ncc(C)cn2)nnc1-c1cccc(C)n1 [Example 99.0]
Isolated Heart Assay dP/dtmax(%) [1, 2]: 18% and 19.7%
Isolated Heart Assay dP/dtmin(%) [1, 3]: 30% and 31%
MI Rat Model dP/dtmax(%) (heart failure rat model; [4]): 30% and 31%

COc1cccc(OC)c1-n1c(NS(=O)(=O)[C@@H](C)[C@H](C)c2cnc(C)cn2)nnc1-c1cccnc1 [Example 198.0, (2S,3R)-N-(4-(2,6-dimethoxyphenyl)-5-(pyridin-3-yl)-4H-1,2,4-triazol-3-yl)-3-(5-methylpyrazin-2-yl)butane-2-sulfonamide]
Isolated Heart Assay dP/dtmax(%) [1, 2]: 15.0%
Isolated Heart Assay dP/dtmin(%) [1, 3]: 19.0%
MI Rat Model dP/dtmax(%) (heart failure rat model; [4]): 15%

COc1cccc(OC)c1-n1c(NS(=O)(=O)[C@@H](C)[C@H](OC)c2ncc(C)cn2)nnc1-c1cncc(C)c1 [Example 203.0, (1R,2S)-N-(4-(2,6-dimethoxyphenyl)-5-(5-methyl-3-pyridinyl)-4H-1,2,4-triazol-3-yl)-1-methoxy-1-(5-methyl-2-pyrimiidnyl)-2-propanesulfonamide]
Isolated Heart Assay dP/dtmax(%) [1, 2]: No effect
Isolated Heart Assay dP/dtmin(%) [1, 3]: No effect
MI Rat Model dP/dtmax(%) (heart failure rat model; [4]): 12%

COc1cccc(-c2nnc(NS(=O)(=O)[C@@H](C)[C@H](O)c3ccc(F)cc3S(C)(=O)=O)n2-c2c(OC)cccc2OC)n1 [Example 288.0]
EC50 (APJ; Activity hAPJ SPA EC50 IP (μM)): 0.0011 µM

COc1ccc(Cl)c(OC)c1-n1c(-c2cncc(C)c2)nnc1S(=O)(=O)NCCc1ccc(Cl)cc1 [Example 373.0, 4-(3-chloro-2,6-dimethoxyphenyl)-N-(2-(4-chlorophenyl)ethyl)-5-(5-methyl-3-pyridinyl)-4H-1,2,4-triazole-3-sulfonamide]
EC50 (APJ; Activity hAPJ SPA EC50 IP (μM)): 0.31 µM

COc1cccc(OC)c1-n1c(NS(=O)(=O)[C@@H](C)[C@H](OC)c2ncc(-c3ccccc3)cn2)nnc1-c1cncc(C)c1 [Example 428.0, (1R,2S)-N-(4-(2,6-dimethoxyphenyl)-5-(5-methylpyridin-3-yl)-4H-1,2,4-triazol-3-yl)-1-methoxy-1-(5-phenylpyrimidin-2-yl)propane-2-sulfonamide]
EC50 (APJ; Activity hAPJ SPA EC50 IP (μM)): 0.0025 µM

CC#Cc1cnc([C@@H](OC)[C@H](C)S(=O)(=O)Nc2nnc(-c3cncc(C)c3)n2-c2c(OC)cccc2OC)nc1 [Example 535.0, (1R,2S)-N-(4-(2,6-dimethoxyphenyl)-5-(5-methylpyridin-3-yl)-4H-1,2,4-triazol-3-yl)-1-methoxy-1-(5-(prop-1-yn-1-yl)pyrimidin-2-yl)propane-2-sulfonamide]
EC50 (APJ; Activity hAPJ SPA EC50 IP (μM)): 0.0013 µM

COc1cccc(-c2nnc(NS(=O)(=O)CCc3ccc(C#N)cn3)n2-c2c(OC)cccc2OC)n1 [Example 550.0, 2-(5-cyanopyridin-2-yl)-N-(4-(2,6-dimethoxyphenyl)-5-(6-methoxypyridin-2-yl)-4H-1,2,4-triazol-3-yl)ethanesulfonamide]
EC50 (APJ; Activity hAPJ SPA EC50 IP (μM)): 0.0008 µM

CO[C@H](c1ncc(C)cn1)[C@H](C)S(=O)(=O)Nc1nnc(-c2cncc(C)c2)n1-c1c(C)cccc1C [Example 673.0, (1R,2S)-N-(4-(2,6-dimethylphenyl)-5-(5-methyl-3-pyridinyl)-4H-1,2,4-triazol-3-yl)-1-methoxy-1-(5-methyl-2-pyrimidinyl)-2-propanesulfonamide 2,2,2-trifluoroacetate]
EC50 (APJ; Activity hAPJ SPA EC50 IP (μM)): 0.022 µM

COCCO[C@H](c1ncc(C)cn1)[C@H](C)S(=O)(=O)Nc1nnc(-c2cccc(OC)n2)n1-c1c(OC)cccc1OC [Example 695.0, (1R,2S)-N-(4-(2,6-dimethoxyphenyl)-5-(6-methoxypyridin-2-yl)-4H-1,2,4-triazol-3-yl)-1-(2-methoxyethoxy)-1-(5-methylpyrimidin-2-yl)propane-2-sulfonamide]
EC50 (APJ; Activity hAPJ SPA EC50 IP (μM)): 0.00012 µM

COc1cccc(OC)c1-n1c(NS(=O)(=O)[C@@H](C)[C@H](C)c2ncc(C#N)cn2)nnc1-c1cncc(C)c1 [Example 697.0, (2S,3R)-3-(5-cyano-2-pyrimidinyl)-N-(4-(2,6-dimethoxyphenyl)-5-(5-methyl-3-pyridinyl)-4H-1,2,4-triazol-3-yl)-2-butanesulfonamide]
EC50 (APJ; Activity hAPJ SPA EC50 IP (μM)): 0.0007 µM

COc1cccc(OC)c1-n1c(NS(=O)(=O)[C@@H](C)[C@H](C)c2ncc(C)cn2)nnc1-c1cncc(C2CC2)c1 [Example 734.0, (2S,3R)-N-(5-(5-cyclopropylpyridin-3-yl)-4-(2,6-dimethoxyphenyl)-4H-1,2,4-triazol-3-yl)-3-(5-methylpyrimidin-2-yl)butane-2-sulfonamide]
EC50 (APJ; Activity hAPJ SPA EC50 IP (μM)): 0.002 µM

COc1cnc([C@@H](C)[C@H](C)S(=O)(=O)Nc2nnc(-c3cccc(OC)n3)n2-c2c(F)cccc2F)cn1 [Example 787.0, (2S,3R)-N-(4-(2,6-difluorophenyl)-5-(6-methoxy-2-pyridinyl)-4H-1,2,4-triazol-3-yl)-3-(5-methoxy-2-pyrazinyl)-2-butanesulfonamide]
EC50 (APJ; Activity hAPJ SPA EC50 IP (μM)): 0.00053 µM
